Assay results reported in ChEMBL document CHEMBL4665888, “[1,2,4]Triazolo[1,5-a]pyrimidine Phosphodiesterase 2A Inhibitors: Structure and Free-Energy Perturbation-Guided Exploration” (J Med Chem, 2020).
≈ marks a conversion by molar mass, not a printed value.

Legend:
[1] = physchem; details: pH 7.4 buffer
Description: Solubility in pH 7.4 buffer

[2] = rat, in vivo, po, 10 mg/kg
Description: Drug concentration in Long-Evans rat brain at 10 mg/kg, po

[3] = in vivo; details: Long-Evans, rat, brain/plasma, po, 10 mg/kg
Description: Ratio of drug concentration in Long-Evans rat brain to plasma at 10 mg/kg, po

[4] = rat, in vivo, po, 10 mg/kg; remark: listed apart in the source
Description: Plasma concentration in Long-Evans rat at 10 mg/kg, po

solubility [1] | Drug uptake [2] | Kp [3] | Cp [4] | SMILES
105 µM (≈ 44.6 µg/mL) |  |  |  | CS(=O)(=O)n1ccc2cc(C(=O)N3CCCC(c4ccnc5ncnn45)C3)ccc21 (racemic)
 | 788 ng/mL | 0.5 | 1640 ng/mL | C[C@@H]1CCN(C(=O)c2ccc3occc3c2)C[C@H]1c1cc(C(F)F)nc2ncnn12
